Target: T1, MIF (Homo sapiens, UniProt P14174)
T1 sequence (P14174 2-115 limits assumed): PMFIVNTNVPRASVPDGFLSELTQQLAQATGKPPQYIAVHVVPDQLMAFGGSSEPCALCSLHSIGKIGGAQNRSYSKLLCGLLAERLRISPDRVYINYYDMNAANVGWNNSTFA
Experiment: MIF tautomerase assay using pHPP as substrate
Assay type: biochemical
Settings: FIGS. 1-5; mean of multiple test results; read-out: pIC50 MIF tautomerase activity (converted)
Outline: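 Mean pIC50 derived from initial rates (absorbance progress-curve slopes) of MIF-catalyzed ketonic-to-enolic pHPP conversion, read as enol–borate complex. Reactions contained 1.5 mM substrate and 3 nM enzyme (final), 200 mM boric acid stock buffer, BSA and CHAPS, pH 6.0.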

IC50 [nM] | Compound
≤ 100 | COc1ccc2c(cnn2-c2nc(N3CCN(c4ccc(O)cc4)CC3)nc3c2ncn3CC(=O)O)c1 [Example 51, 2-(2-(4-(4-hydroxyphenyl)piperazin-1-yl)-6-(5-methoxy-1H-indazol-1-yl)-9H-purin-9-yl)acetic acid]
≤ 100 | O=C(Cn1cnc2c(-n3ncc4ccccc43)nc(N3CCN(c4ccc(O)cc4)CC3)nc21)NS(=O)(=O)C1CC1 [Example 55, N-(cyclopropylsulfonyl)-2-(2-(4-(4-hydroxyphenyl)piperazin-1-yl)-6-(1H-indazol-1-yl)-9H-purin-9-yl)acetamide]

Same assay, conditions: inhibition of the MIF enzyme in vitro; mean of multiple test results

Compound | Tautomerase Inhibition pIC50
4-(4-(7-(2-hydroxyethyl)-4-(indolin-1-yl)-7H-pyrrolo[2,3-d]pyrimidin-2-yl)piperazin-1-yl)phenol [Example 1] | B (B means 5.01 to 6)

Same assay, conditions: inhibition of the MIF enzyme in vitro; mean of multiple test results; read-out: Tautomerase Inhibition pIC50 (converted)

IC50 [nM] | Compound
10 to 97.7 | O=C(O)CCn1cnc2c(-n3ncc4ccccc43)nc(N3CCN(c4ccc(O)cc4)CC3)nc21 [Example 148, 4-(2-(4-(4-hydroxyphenyl)piperazin-1-yl)-6-(1H-indazol-1-yl)-9H-purin-9-yl)propanoic acid]
1000 to 9770 | Nc1nc(N2CCN(c3ccc(O)cc3)CC2)nc2c1ncn2Cc1ccccc1 [Example 89, 4-(4-(6-amino-9-benzyl-9H-purin-2-yl)piperazin-1-yl)phenol]
1000 to 9770 | NCCn1cnc2c(-n3ncc4ccccc43)nc(N3CCN(c4ccc(O)cc4)CC3)nc21 [Example 137, 4-(4-(9-(2-aminoethyl)-6-(1H-indazol-1-yl)-9H-purin-2-yl)piperazin-1-yl)phenol]
10 to 97.7 | O=C(O)CCCCn1cnc2c(-n3ncc4ccccc43)nc(N3CCN(c4ccc(O)cc4)CC3)nc21 [Example 150, 5-(2-(4-(4-hydroxyphenyl)piperazin-1-yl)-6-(1H-indazol-1-yl)-9H-purin-9-yl)pentanoic acid]
10 to 97.7 | CC(C(=O)O)n1cnc2c(-n3ncc4ccccc43)nc(N3CCN(c4ccc(O)cn4)CC3)nc21 (stereo not shown) [Example 145, 2-(2-(4-(5-hydroxypyridin-2-yl)piperazin-1-yl)-6-(1H-indazol-1-yl)-9H-purin-9-yl)propanoic acid]
100 to 977 | Oc1ccc(C2(O)CCN(c3nc(N4C[C@H](O)[C@@H](O)C4)c4ncn(-c5ccncc5)c4n3)CC2)cc1 [Example 207, (3S,4S)-1-(2-(4-hydroxy-4-(4-hydroxyphenyl)piperidin-1-yl)-9-(pyridin-4-yl)-9H-purin-6-yl)pyrrolidine-3,4-diol]
10 to 97.7 | CN(CCC(=O)O)c1nc(N2CCN(c3ccc(O)cc3)CC2)nc2c1ncn2-c1ccncc1 [Example 165, 3-((2-(4-(4-hydroxyphenyl)piperazin-1-yl)-9-(pyridin-4-yl)-9H-purin-6-yl)(methyl)amino)propanoic acid]
1000 to 9770 | O=C(O)Cn1cnc2c(-n3ncc4ccc(C(=O)O)cc43)nc(N3CCN(c4ccc(O)cc4)CC3)nc21 [Example 104, 1-(9-(carboxymethyl)-2-(4-(4-hydroxyphenyl)piperazin-1-yl)-9H-purin-6-yl)-1H-indazole-6-carboxylic acid]
100 to 977 | Oc1ccc(C2(O)CCN(c3nc(Nc4ccncc4)c4nc[nH]c4n3)CC2)cc1 [Example 219, 4-(4-hydroxyphenyl)-1-(6-(pyridin-4-ylamino)-9H-purin-2-yl)piperidin-4-ol]
> 10000 | Cc1cc(-n2cnc3c(C)nc(N4CCC(O)(c5ccc(O)cc5)CC4)nc32)ccn1 [Example 203, 4-(4-hydroxyphenyl)-1-(6-methyl-9-(2-methylpyridin-4-yl)-9H-purin-2-yl)piperidin-4-ol]
100 to 977 | OCCNc1nc(N2CCN(c3ccc(O)cc3)CC2)nc2c1ncn2-c1cccnc1 [Example 112, 4-(4-(6-((2-hydroxyethyl)amino)-9-(pyridin-3-yl)-9H-purin-2-yl)piperazin-1-yl)phenol]
1000 to 9770 | Nc1nc(N2CCN(c3ccc(O)cn3)CC2)nc2c1ccn2-c1ccncc1 [Example 230, 6-(4-(4-amino-7-(pyridin-4-yl)-7H-pyrrolo[2,3-d]pyrimidin-2-yl)piperazin-1-yl)pyridin-3-ol]
> 10000 | O=C(O)C1CCN(c2nc(N3CCN(c4cccnc4)CC3)nc3c2ncn3-c2ccncc2)C1 (stereo not shown) [Example 181, 1-(2-(4-(pyridin-3-yl)piperazin-1-yl)-9-(pyridin-4-yl)-9H-purin-6-yl)pyrrolidine-3-carboxylic acid]
10 to 97.7 | Oc1ccc(N2CCN(c3ncc4ncn(-c5ccncc5)c4n3)CC2)cc1 [Example 184, 4-(4-(9-(pyridin-4-yl)-9H-purin-2-yl)piperazin-1-yl)phenol]
> 10000 | Nc1nc(N2CCC(O)(C#CCO)CC2)nc2c1ncn2-c1ccncc1 [Example 198, 1-(6-amino-9-(pyridin-4-yl)-9H-purin-2-yl)-4-(3-hydroxyprop-1-yn-1-yl)piperidin-4-ol]
> 10000 | O=C(O)Cn1cnc2c(-n3ncc4ccccc43)nc(N3CCN(c4ccc(O)nc4)CC3)nc21 [Example 129, 2-(2-(4-(6-hydroxypyridin-3-yl)piperazin-1-yl)-6-(1H-indazol-1-yl)-9H-purin-9-yl)acetic acid]
100 to 977 | COC(=O)CNc1nc(N2CCN(c3ccc(O)cc3)CC2)nc2c1ncn2-c1ccncc1 [Example 162, Methyl (2-(4-(4-hydroxyphenyl)piperazin-1-yl)-9-(pyridin-4-yl)-9H-purin-6-yl)glycinate]
100 to 977 | OC[C@H]1CCCN1c1nc(N2CCN(c3ccc(O)cc3)CC2)nc2c1ncn2-c1cccnc1 [Example 93, (R)-4-(4-(6-(2-(hydroxymethyl)pyrrolidin-1-yl)-9-(pyridin-3-yl)-9H-purin-2-yl)piperazin-1-yl)phenol]

The next lines start with the compound.

Compound | IC50 [nM]
COc1ccc2c(cnn2-c2nc(N3CCN(c4ccc(O)cc4)CC3)nc3c2ncn3CC(=O)O)c1 [Example 51, 2-(2-(4-(4-hydroxyphenyl)piperazin-1-yl)-6-(5-methoxy-1H-indazol-1-yl)-9H-purin-9-yl)acetic acid] | 10 to 97.7
COc1ncccc1-n1cnc2c(C)nc(N3CCN(c4ccc(O)cc4)CC3)nc21 [Example 62, 4-(4-(9-(2-methoxypyridin-3-yl)-6-methyl-9H-purin-2-yl)piperazin-1-yl)phenol] | 10 to 97.7
O=C(O)Cn1cnc2c(-c3cccc4[nH]ncc34)nc(N3CCN(c4ccc(O)cc4)CC3)nc21 [Example 34, 2-(2-(4-(4-hydroxyphenyl)piperazin-1-yl)-6-(1H-indazol-4-yl)-9H-purin-9-yl)acetic acid] | 1000 to 9770
Oc1ccc(N2CCN(c3cc(-n4ncc5ccccc54)n4ncc(Br)c4n3)CC2)cc1 [Example 13, 4-(4-(3-bromo-7-(1H-indazol-1-yl)pyrazolo[1,5-a]pyrimidin-5-yl)piperazin-1-yl)phenol] | > 10000
CCS(=O)(=O)NC(=O)Cn1cnc2c(-n3ncc4ccccc43)nc(N3CCN(c4ccc(O)cc4)CC3)nc21 [Example 53, N-(ethylsulfonyl)-2-(2-(4-(4-hydroxyphenyl)piperazin-1-yl)-6-(1H-indazol-1-yl)-9H-purin-9-yl)acetamide] | 10 to 97.7
O=C(O)Cn1cnc2c(-n3nnc4ccc(Cl)cc43)nc(N3CCN(c4ccc(O)cc4)CC3)nc21 [Example 18, 2-(6-(6-chloro-1H-benzo[d][1,2,3]triazol-1-yl)-2-(4-(4-hydroxyphenyl)piperazin-1-yl)-9H-purin-9-yl)acetic acid] | 10 to 97.7
O=C(Cn1cnc2c(-n3ncc4ccccc43)nc(N3CCN(c4ccc(O)cc4)CC3)nc21)NS(=O)(=O)C1CC1 [Example 55, N-(cyclopropylsulfonyl)-2-(2-(4-(4-hydroxyphenyl)piperazin-1-yl)-6-(1H-indazol-1-yl)-9H-purin-9-yl)acetamide] | 10 to 97.7
Nc1nc(N2CCN(c3ccc(O)cc3)CC2)nc2c1ncn2-c1cccc(F)c1 [Example 72, 4-(4-(6-amino-9-(3-fluorophenyl)-9H-purin-2-yl)piperazin-1-yl)phenol] | 1000 to 9770
OCCCn1cnc2c(N3CCc4ccccc43)nc(N3CCN(c4ccc(O)cc4)CC3)nc21 [Example 7, 4-(4-(9-(3-hydroxypropyl)-6-(indolin-1-yl)-9H-purin-2-yl)piperazin-1-yl)phenol] | 1000 to 9770
Nc1nc(N2CCN(c3ccc(O)cc3)CC2)nc2c1ncn2-c1ccc(Cl)cc1 [Example 75, 4-(4-(6-amino-9-(4-chlorophenyl)-9H-purin-2-yl)piperazin-1-yl)phenol] | > 10000
O=C(O)Cn1cnc2c(N3CCc4ccccc43)nc(N3CCN(c4ccc(O)cc4)CC3)nc21 [Example 31, 2-(2-(4-(4-hydroxyphenyl)piperazin-1-yl)-6-(indolin-1-yl)-9H-purin-9-yl)acetic acid] | 100 to 977
Oc1ccc(N2CCN(c3nc(N4CCc5ccccc54)c4ncn(-c5cccnc5)c4n3)CC2)cc1 [Example 39, 4-(4-(6-(indolin-1-yl)-9-(pyridin-3-yl)-9H-purin-2-yl)piperazin-1-yl)phenol] | 100 to 977
O=C1Cc2cccnc2N1c1nc(N2CCN(c3ccc(O)cc3)CC2)nc2c1ncn2CCO [Example 58, 1-(9-(2-hydroxyethyl)-2-(4-(4-hydroxyphenyl)piperazin-1-yl)-9H-purin-6-yl)-1H-pyrrolo[2,3-b]pyridin-2(3H)-one] | 1000 to 9770

Target: T2, biotinylated human MIF / MIF receptor ectodomain (sCD74) (Homo sapiens, UniProt P14174)
T2 construct: made in house
T2 sequence (P14174 2-115 limits assumed): T1 sequence (P14174 2-115 limits assumed)
Experiment: MIF-CD74 binding assay
Settings: FIGS. 9-12; read-out: pIC50 MIF-CD74 binding (converted)
Method: The assay measures the ability of a compound to inhibit the binding of MIF with its receptor CD74 in vitro. 96-well plates were coated with recombinant MIF receptor ectodomain (sCD74=CD7473-232), washed 4 times, and blocked with Superblock (Pierce Biotechnology) at 4° C. overnight. Test compounds, which were used at a top final assay concentration of 33.3 μM, diluted in assay medium with 1:3 dilutions to produce 10 point concentration responses, were pre-incubated with biotinylated human MIF (2 ng/μl) (Roche Applied Sciences) prepared recombinantly for 30 minutes at room temperature. The mixtures then were added to wells for overnight incubation at 4° C. The wells were washed 4 times and strepavidin-conjugated alkaline phosphatase (R&D Systems) was added for one hour incubation at room temperature. After additional washes, 60 μl/well of p-nitrophenyl phosphate (Sigma) substrate was added. Absorbance at 405 nm was plotted as percent A405 relative to wells containing biotinylated human MIF alone. Each plot represented at least three independently performed assays, and each data point depicts a SEM≤10%. Each test compound was analyzed over 10-12 concentrations, and over a ˜500-fold concentration range.
Selected examples were tested in the MIF-CD74 binding assay. The data mentioned below represents a mean pIC50 value of multiple test results. It is understood that the data illustrated below may have reasonable variation depending on the specific conditions and procedures used by the person conducting the testing.

IC50 [nM] | Compound
4900 | O=C(O)CCn1cnc2c(-n3ncc4ccccc43)nc(N3CCN(c4ccc(O)cc4)CC3)nc21 [Example 148, 4-(2-(4-(4-hydroxyphenyl)piperazin-1-yl)-6-(1H-indazol-1-yl)-9H-purin-9-yl)propanoic acid]
8910 | COc1ccc2c(cnn2-c2nc(N3CCN(c4ccc(O)cc4)CC3)nc3c2ncn3CC(=O)O)c1 [Example 51, 2-(2-(4-(4-hydroxyphenyl)piperazin-1-yl)-6-(5-methoxy-1H-indazol-1-yl)-9H-purin-9-yl)acetic acid]
26300 | COc1ncccc1-n1cnc2c(C)nc(N3CCN(c4ccc(O)cc4)CC3)nc21 [Example 62, 4-(4-(9-(2-methoxypyridin-3-yl)-6-methyl-9H-purin-2-yl)piperazin-1-yl)phenol]

Reference: patent publication US20220144838A1, “Compounds as Inhibitors of Macrophage Migration Inhibitory Factor” (NANJING IMMUNOPHAGE BIOTECH CO., LTD., priority 2019, published 2022)
